Test results: US20250368648A1, “MULTI-CYCLIC IRAK AND FLT3 INHIBITING COMPOUNDS AND USES THEREOF” (CHILDREN'S HOSPITAL MEDICAL CENTER, priority 2022, published 2025)
Substitutions are numbered along the chain they refer to.

Columns and labels:
FLT3 D835Y = target: T1, FLT3 D835Y (Homo sapiens, UniProt P36888, D835Y); test: DiscoverX KINOMEscan competition binding, FLT3 D835Y; settings: no ATP
T1 construct: purchased DiscoverX (KINOMEscan); host or cells: E. coli (T7 phage) or HEK-293
T1 sequence (P36888 27-993 D835Y): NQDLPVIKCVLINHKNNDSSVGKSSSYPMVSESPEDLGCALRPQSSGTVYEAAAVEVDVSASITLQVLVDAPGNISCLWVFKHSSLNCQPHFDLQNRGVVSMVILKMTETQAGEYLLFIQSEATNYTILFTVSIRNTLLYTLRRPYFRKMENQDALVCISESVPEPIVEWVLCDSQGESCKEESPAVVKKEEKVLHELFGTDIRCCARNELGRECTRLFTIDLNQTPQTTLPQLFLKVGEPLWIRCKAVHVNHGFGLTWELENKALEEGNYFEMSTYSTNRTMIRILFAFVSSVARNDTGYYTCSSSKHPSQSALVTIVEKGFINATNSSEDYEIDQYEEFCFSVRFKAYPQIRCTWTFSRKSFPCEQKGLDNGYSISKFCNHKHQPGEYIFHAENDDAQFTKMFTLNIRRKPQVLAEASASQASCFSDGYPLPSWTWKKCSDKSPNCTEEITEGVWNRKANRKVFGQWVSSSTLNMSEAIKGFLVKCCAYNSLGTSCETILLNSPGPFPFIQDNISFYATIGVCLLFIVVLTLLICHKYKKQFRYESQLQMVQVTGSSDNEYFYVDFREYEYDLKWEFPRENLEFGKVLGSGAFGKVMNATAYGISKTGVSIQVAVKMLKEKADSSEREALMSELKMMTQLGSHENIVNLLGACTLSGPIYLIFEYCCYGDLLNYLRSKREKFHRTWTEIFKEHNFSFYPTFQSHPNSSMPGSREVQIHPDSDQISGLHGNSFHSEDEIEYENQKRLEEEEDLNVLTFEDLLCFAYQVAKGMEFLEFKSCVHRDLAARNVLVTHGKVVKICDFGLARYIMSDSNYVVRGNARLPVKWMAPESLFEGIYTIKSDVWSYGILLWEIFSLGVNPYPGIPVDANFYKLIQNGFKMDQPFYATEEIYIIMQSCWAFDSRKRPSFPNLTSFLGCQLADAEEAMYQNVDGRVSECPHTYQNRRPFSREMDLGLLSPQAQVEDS
From the text: (§1) Kinase binding data were obtained for various exemplary compounds prepared according to Examples 2-15 using the DiscoverX KINOMEscan® active site-directed competition binding site-directed assay protocol described below. […] As a result, the data report thermodynamic interaction affinities (Kd values), rather than IC50 values that are dependent on ATP concentrations. The assay uses a DNA-tagged version of the protein kinase, and an immobilized ligand bound to a solid support. Compounds that directly or indirectly prevent kinase binding to the immobilized ligand reduce the amount of kinase captured on the solid support, which is detected using an ultra-sensitive qPCR method. Affinity constants reported from the assay have been reported to be independent of the immobilized ligand used that is coupled to the solid support (See supplemental information in Fabian, M. A. et. al., (2005) Nat. […] Wodicka, L. […] Biol. 17, 1241-1249.) Kinase-tagged T7 phage strains were prepared in an E. coli host derived from the BL21 strain. E. coli were grown to log-phase and infected with T7 phage and incubated with shaking at 32° C. until lysis. […] Kds were determined using an 11-point 3-fold compound dilution series with three DMSO control points. […] The kinase concentration in the eluates was measured by qPCR. Binding constants (Kds) were calculated with a standard dose-response curve using the Hill equation. […]

FLT3 R834Q = target: T2, FLT3 R834Q (Homo sapiens, UniProt P36888, R834Q); test: DiscoverX KINOMEscan competition binding, FLT3 R834Q; settings: no ATP
T2 construct: purchased DiscoverX (KINOMEscan); host or cells: E. coli (T7 phage) or HEK-293
T2 sequence (P36888 27-993 R834Q): T1 sequence (P36888 27-993 D835Y) with R808Q, Y809D
From the text: as §1

## COc1cc2ncc(-c3nc(N[C@H]4CNCC[C@@H]4F)c(F)cc3F)n2nc1C1CCC1 [Compound 15a, 6-(6-cyclobutyl-7-methoxyimidazo[1,2-b]pyridazin-3-yl)-3,5-difluoro-N-((3S,4S)-4-fluoropiperidin-3-yl)pyridin-2-amine]
FLT3 D835Y
  Kd: < 170 pM
FLT3 R834Q
  Kd: 810 pM
